Source: PMC3711119 (European journal of medicinal chemistry, 2013)

Tested on: human neutrophils
Test: Ca2+ mobilization
Format: cell-based
Conditions: Neutrophil, read-out: Ca2+ flux Efficacy

| SMILES | Emax |
| --- | --- |
| Cc1cc(N)c(=O)n(CC(=O)Nc2ccc(Br)cc2)n1 [Compound 27, N-(4-Bromophenyl)-2-[5-amino-3-methyl-6-oxopyridazin-1(6H)-yl]acetamide] | 100% |
| COc1cccc(Cc2ccnn(CC(=O)Nc3ccc(Br)cc3)c2=O)c1 [Compound 6a, N-(4-Bromophenyl)-2-[5-(3-methoxybenzyl)-6-oxopyridazin-1(6H)-yl]acetamide] | 100% |
